The subject of experiment [1] is MCF7. The experiment can be described thus: Anticancer activity against human MCF7 cells assessed as cell viability at 100 uM after 48 hrs by MTT assay. The class given is functional. To be noted: MCF7, 48 h, read-out: Activity. In general terms: Tetrazolium dyes change colour on reduction, which living cells bring about.
Experiment [2] deals with CCRF-CEM. The experiment can be described thus: Anticancer activity against human CCRF-CEM cells assessed as cell viability at 100 uM after 24 hrs by MTT assay. The class given is functional. To be noted: read-out: Activity.
Experiment [3] has as its system CCRF-CEM. Briefly: Anticancer activity against human CCRF-CEM cells assessed as cell viability at 50 uM after 48 hrs by MTT assay. The experiment is classed as functional. To be noted: read-out: Activity.
In experiment [4] the test system is CCRF-CEM. The experiment can be described thus: Anticancer activity against human CCRF-CEM cells assessed as cell viability at 100 uM after 48 hrs by MTT assay. The class given is functional. The settings on record: read-out: Activity.
For experiment [5], the system named is MCF7. Briefly: Anticancer activity against human MCF7 cells assessed as cell viability at 12.5 uM after 48 hrs by MTT assay. The settings on record: MCF7, 48 h, read-out: Activity. The experiment is classed as functional.
For experiment [6], the system named is MCF7. The experiment can be described thus: Anticancer activity against human MCF7 cells assessed as cell viability at 50 uM after 24 hrs by MTT assay. The experiment is classed as functional. The settings on record: MCF7, 24 h, read-out: Activity.
Experiment [7] has as its system MCF7. The experiment can be described thus: Anticancer activity against human MCF7 cells assessed as cell viability at 12.5 uM after 24 hrs by MTT assay. The experiment is classed as functional. The settings on record: MCF7, 24 h, read-out: Activity.
Experiment [8] has as its system MCF7. Briefly: Anticancer activity against human MCF7 cells assessed as cell viability at 100 uM after 24 hrs by MTT assay. The experiment is classed as functional. To be noted: MCF7, 24 h, read-out: Activity.
In experiment [9] the target is Casein kinase II subunit alpha (Homo sapiens) (UniProt P68400). The experiment can be described thus: Inhibition of human CK2alpha using RRRDDDSDDD peptide substrate at 20 uM by P81 filter-binding assay. Further details: scale not given: the % may be the effect or the level left.
Experiment [10] has the same target. The experiment can be described thus: Inhibition of human CK2alpha using RRRDDDSDDD peptide substrate at 200 uM by P81 filter-binding assay. Further details: scale not given: the % may be the effect or the level left.
Experiment [11] deals with MCF7. The experiment can be described thus: Anticancer activity against human MCF7 cells assessed as cell viability at 25 uM after 24 hrs by MTT assay. The class given is functional. To be noted: MCF7, 24 h, read-out: Activity.
The subject of experiment [12] is CCRF-CEM. Briefly: Anticancer activity against human CCRF-CEM cells assessed as cell viability at 50 uM after 24 hrs by MTT assay. To be noted: read-out: Activity. The class given is functional.
In experiment [13] the test system is CCRF-CEM. The experiment can be described thus: Anticancer activity against human CCRF-CEM cells assessed as cell viability at 12.5 uM after 24 hrs by MTT assay. The class given is functional. To be noted: read-out: Activity.
Experiment [14] concerns MCF7. The experiment can be described thus: Anticancer activity against human MCF7 cells assessed as cell viability at 25 uM after 48 hrs by MTT assay. The experiment is classed as functional. To be noted: MCF7, 48 h, read-out: Activity.
In experiment [15] the test system is CCRF-CEM. Briefly: Anticancer activity against human CCRF-CEM cells assessed as cell viability at 25 uM after 24 hrs by MTT assay. To be noted: read-out: Activity. The experiment is classed as functional.
Experiment [16] deals with CCRF-CEM. The experiment can be described thus: Anticancer activity against human CCRF-CEM cells assessed as cell viability at 12.5 uM after 48 hrs by MTT assay. The class given is functional. The settings on record: read-out: Activity.
The test system of experiment [17] is MCF7. The experiment can be described thus: Anticancer activity against human MCF7 cells assessed as cell viability at 50 uM after 48 hrs by MTT assay. The class given is functional. The settings on record: MCF7, 48 h, read-out: Activity.
Experiment [18] has as its system CCRF-CEM. The experiment can be described thus: Anticancer activity against human CCRF-CEM cells assessed as cell viability at 25 uM after 48 hrs by MTT assay. To be noted: read-out: Activity. The class given is functional.

Molecules are shown by their SMILES.

Chain of Casein kinase II subunit alpha (Homo sapiens) (P68400 whole entry, looked up): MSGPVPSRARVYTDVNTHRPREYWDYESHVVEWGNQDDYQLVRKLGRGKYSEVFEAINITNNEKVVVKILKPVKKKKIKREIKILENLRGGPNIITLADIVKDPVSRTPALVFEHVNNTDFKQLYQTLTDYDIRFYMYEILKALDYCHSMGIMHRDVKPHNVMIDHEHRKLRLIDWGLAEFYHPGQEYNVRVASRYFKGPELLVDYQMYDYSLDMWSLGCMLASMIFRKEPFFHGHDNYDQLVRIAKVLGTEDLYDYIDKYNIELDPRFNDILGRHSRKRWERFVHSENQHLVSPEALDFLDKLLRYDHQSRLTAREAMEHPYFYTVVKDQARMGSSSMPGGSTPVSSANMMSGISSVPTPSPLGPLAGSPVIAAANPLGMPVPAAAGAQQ

On to `OC(CCn1nc2c(Br)c(Br)c(Br)c(Br)c2n1)c1cccc(Cl)c1` (stereo unspecified), for which the viability at 100 µM in [1] came out at 0.5%; in [2] it was 0%; in [4], 0%; in [8], 0%. The viability at 50 µM is 0% in experiment [3], 28% in experiment [6], 71% in experiment [12] and 12% in experiment [17]. The viability at 12.5 µM is 107% in experiment [5], 97% in experiment [7], 110% in experiment [13] and 70% in [16]. Further, the Activity in experiment [9] was 74.9%; in [10], 23.8%. Further, the viability at 25 µM in experiment [11] is 96%; in [14], 101%; in [15], 118%; in experiment [18], 68%.
As to `C[C@H](O)CCn1nc2c(Br)c(Br)c(Br)c(Br)c2n1`, the viability at 100 µM is 6% in experiment [1], 36% in experiment [2], 10% in [4] and 31% in [8]. Also, the viability at 50 µM amounted to 42% in [3], 105% in experiment [6], 86% in experiment [12] and 87% in experiment [17]. The viability at 12.5 µM stood at 100% in experiment [5], 112% in experiment [7], 126% in [13] and 92% in experiment [16]. For the same compound, the viability at 25 µM worked out at 102% in [11], 89% in [14], 112% in [15] and 89% in experiment [18].
With `OC(CCn1nc2c(Br)c(Br)c(Br)c(Br)c2n1)c1ccc(F)cc1` (stereo unspecified), the viability at 100 µM in experiment [1], in experiment [2], in experiment [4] and in [8] was 0% in each case. The viability at 50 µM came out at 0% in [3], 16% in [6], 46% in experiment [12] and 7% in experiment [17]. Also, the viability at 12.5 µM in experiment [5] is 109%; in experiment [7], 116%; in experiment [13], 110%; in experiment [16], 101%. Besides, the Activity in experiment [9] stood at 91.4%; in experiment [10] it was 35.4%. Besides, the viability at 25 µM in experiment [11] is 101%; in experiment [14], 97%; in [15] it was 104%; in experiment [18] it was 88%.
For `CC(O)CCn1nc2c(Br)c(Br)c(Br)c(Br)c2n1` (racemic), the viability at 100 µM in experiment [1] worked out at 0%; in experiment [2] it was 3%; in [4], 0%; in experiment [8] it was 57%. Moreover, the viability at 50 µM came to 45% in [3], 90% in experiment [6], 89% in experiment [12] and 76% in experiment [17]. Besides, the viability at 12.5 µM in experiment [5] worked out at 79%; in experiment [7] it was 99%; in [13], 106%; in [16] it was 94%. Also, the viability at 25 µM is 102% in experiment [11], 73% in experiment [14], 113% in [15] and 86% in [18].
For `C[C@H](O)Cn1nc2c(Br)c(Br)c(Br)c(Br)c2n1`, the viability at 100 µM turned out to be 8% in experiment [1], 9% in [2], 0% in [4] and 25% in [8]. The viability at 50 µM in experiment [3] was 58%; in [6] it was 58%; in [12], 72%; in [17], 10%. For the same compound, the viability at 12.5 µM in experiment [5] was determined as 101%; in [7], 119%; in experiment [13] it was 104%; in experiment [16], 105%. The viability at 25 µM in experiment [11] stood at 67%; in experiment [14], 64%; in experiment [15], 104%; in [18], 92%.
Consider `Brc1c(Br)c(Br)c2[nH]nnc2c1Br` [TETRABROMOBENZOTRIAZOLE], for which the viability at 100 µM was determined as 61% in experiment [2] and 109% in experiment [8]. Also, the viability at 50 µM was found to be 120% in [6] and 118% in experiment [12]. Moreover, the viability at 12.5 µM worked out at 111% in experiment [7] and 115% in experiment [13]. In addition, the viability at 25 µM was 108% in [11] and 105% in experiment [15].
On to `OC(CCn1nc2c(Br)c(Br)c(Br)c(Br)c2n1)c1cccc(Br)c1` (stereo unspecified), for which the viability at 100 µM in [1] is 0%; in experiment [2] it was 0%; in experiment [4] it was 0%; in [8], 1%. Further, the viability at 50 µM in [3] was 0%; in experiment [6], 14%; in [12] it was 54%; in experiment [17], 11%. The viability at 12.5 µM in experiment [5] was 102%; in [7], 81%; in [13], 102%; in experiment [16] it was 118%. Moreover, the Activity in experiment [9] stood at 96.6%; in experiment [10], 43.4%. For the same compound, the viability at 25 µM in experiment [11] stood at 52%; in [14], 106%; in experiment [15], 123%; in experiment [18], 54%.
As to `C[C@@H](O)CCn1nc2c(Br)c(Br)c(Br)c(Br)c2n1`, the viability at 100 µM amounted to 0% in experiment [1], 36% in experiment [2], 24% in experiment [4] and 18% in [8]. Moreover, the viability at 50 µM in experiment [3] came out at 23%; in experiment [6] it was 102%; in experiment [12], 69%; in experiment [17], 64%. Also, the viability at 12.5 µM in experiment [5] was 86%; in [7], 109%; in experiment [13], 88%; in experiment [16], 94%. Besides, the viability at 25 µM in [11] amounted to 105%; in experiment [14] it was 77%; in experiment [15], 81%; in experiment [18] it was 71%.
`OC(CCn1nc2c(Br)c(Br)c(Br)c(Br)c2n1)c1ccccc1` (racemic): the viability at 100 µM in [1] was 0%; in [2], 21%; in experiment [4] it was 0%; in experiment [8] it was 13%. The viability at 50 µM in experiment [3] worked out at 0%; in [6], 28%; in experiment [12] it was 66%; in experiment [17], 23%. Besides, the viability at 12.5 µM in [5] came to 113%; in [7], 115%; in experiment [13] it was 122%; in experiment [16], 89%. The Activity turned out to be 93% in experiment [9] and 31.1% in experiment [10]. Besides, the viability at 25 µM is 99% in experiment [11], 105% in experiment [14], 123% in experiment [15] and 84% in [18].
Consider `CC(O)Cn1nc2c(Br)c(Br)c(Br)c(Br)c2n1` (racemic), for which the viability at 100 µM in [1] was found to be 6%; in [2], 9%; in experiment [4] it was 0%; in experiment [8] it was 15%. The viability at 50 µM in experiment [3] was found to be 53%; in experiment [6], 60%; in [12], 108%; in experiment [17], 16%. The viability at 12.5 µM amounted to 99% in experiment [5], 118% in experiment [7], 125% in [13] and 83% in experiment [16]. In addition, the viability at 25 µM was determined as 96% in experiment [11], 83% in [14], 102% in [15] and 78% in [18].
Take `OCC(O)Cn1nc2c(Br)c(Br)c(Br)c(Br)c2n1` (racemic): the viability at 100 µM in experiment [1] is 8%; in [2] it was 8%; in [4], 1%; in [8], 53%. Further, the viability at 50 µM came to 27% in [3], 98% in experiment [6], 47% in [12] and 109% in experiment [17]. For the same compound, the viability at 12.5 µM in [5] is 116%; in experiment [7], 145%; in [13] it was 78%; in [16] it was 60%. Also, the viability at 25 µM came out at 156% in experiment [11], 111% in experiment [14], 89% in experiment [15] and 56% in experiment [18].

Values taken from ChEMBL document CHEMBL3351930, “Synthesis of novel chiral TBBt derivatives with hydroxyl moiety. Studies on inhibition of human protein kinase CK2α and cytotoxicity properties” (Eur J Med Chem, 2014).
